pEC50: −log10 of the molar value.
Molecular target: T1, recombinant human PKM2 (Homo sapiens, UniProt P14618)
T1 construct: His (N); purchased R&D Systems
Experiment: Human PKM2 activation assay (Kinase-Glo Plus luminescent detection of generated ATP)
Type: biochemical
Conditions: for Emax: percentage activation normalised to DMSO vehicle (LOW) and 5 μM TEPP-46 (HIGH), read-out: hPKM2 Emax; for pEC50: recombinant human PKM2 activation, 4-parameter logistic fit, read-out: hPKM2 EC50
Description: Compound activation of recombinant human PKM2 pyruvate kinase activity was determined by biochemical assay. N-terminal His-tagged hPKM2 was sourced from R&D Systems and its substrates phosphoenolpyruvate (PEP) and ADP from Sigma-Aldrich and 2Bscientific Ltd, respectively. The Kinase-Glo® Plus luminescence assay was from Promega. All other reagents were from Sigma-Aldrich. Test Compounds were prepared as 10 mM DMSO stocks and dilution series prepared in DMSO for direct dilution into Assay Buffer comprising 50 mM imidazole, 50 mM KCl, 7 mM MgCl2, 0.01% Tween20, 0.05% BSA (pH 7.2).
Human PKM2 was diluted into Assay Buffer comprising 50 mM imidazole, 50 mM KCl, 7 mM MgCl2, 0.01% Tween20, 0.05% BSA (pH 7.2) to a final concentration of […]. Enzyme-Assay Buffer mix was dispensed into a 384-well shallow-well white-walled plate (PerkinElmer) and Test Compounds added by acoustic dispense (Echo®, Labcyte Inc.).
After 60 minutes' incubation on an orbital shaker (300 rpm, 26° C.), enzyme activity was quantified by the luminescent detection of generated ATP. Kinase-Glo® Plus reagent was added to each well and the plates incubated for a further 15 minutes on an orbital shaker in the dark (300 rpm, 26° C.) before luminescence measurement on a plate reader (PHERAstar® FSX, BMG Labtech).
Percentage activation was calculated by normalising […] signals to plate LOW (DMSO vehicle) and HIGH (5 μM TEPP-46) controls. EC50 and Emax values were determined from 4-parameter logistic fits of compound concentration-response curves.

T1 sequence (P14618 2-531 limits assumed): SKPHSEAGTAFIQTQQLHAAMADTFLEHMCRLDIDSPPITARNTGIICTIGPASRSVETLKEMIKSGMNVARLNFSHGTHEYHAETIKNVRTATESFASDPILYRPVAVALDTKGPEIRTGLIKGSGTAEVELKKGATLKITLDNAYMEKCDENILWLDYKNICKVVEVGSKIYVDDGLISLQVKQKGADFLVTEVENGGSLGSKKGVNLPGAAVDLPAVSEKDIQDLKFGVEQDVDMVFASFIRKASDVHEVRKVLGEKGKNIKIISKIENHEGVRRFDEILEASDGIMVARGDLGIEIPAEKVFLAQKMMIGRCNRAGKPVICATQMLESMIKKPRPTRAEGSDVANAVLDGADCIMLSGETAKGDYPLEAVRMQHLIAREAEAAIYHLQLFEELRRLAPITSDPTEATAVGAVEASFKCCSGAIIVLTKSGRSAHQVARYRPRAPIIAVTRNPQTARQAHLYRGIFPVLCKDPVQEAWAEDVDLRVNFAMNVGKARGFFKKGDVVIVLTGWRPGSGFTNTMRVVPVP

| Emax [%] | pEC50 | Structure (SMILES) |
| --- | --- | --- |
| 98.9 | 6.80 | COc1cccc(Cn2ncc3cc(S(=O)(=O)c4ccccc4)ccc3c2=O)c1C(N)=O [Example 92, 2-methoxy-6-((1-oxo-6-(phenylsulfonyl)phthalazin-2(1H)-yl)methyl)benzamide] |
| 108 | 6.39 | NC(=O)c1nc(Cn2ncc3cc(S(=O)(=O)c4ccccc4)ccc3c2=O)cs1 [Example 93, 4-((1-oxo-6-(phenylsulfonyl)phthalazin-2(1H)-yl)methyl)thiazole-2-carboxamide] |
| 71.3 | 6.23 | Cc1onc(C(N)=O)c1Cn1ncc2cc(S(=O)(=O)c3ccccc3)ccc2c1=O [Example 94, 5-methyl-4-((1-oxo-6-(phenylsulfonyl)phthalazin-2(1H)-yl)methyl) isoxazole-3-carboxamide] |
| 99.1 | 6.15 | Cc1cc(Cn2ncc3cc(S(=O)(=O)c4ccccc4)ccc3c2=O)sn1 [Example 97, 2-((3-methylisothiazol-5-yl)methyl)-6-(phenylsulfonyl)phthalazin-1(2H)-one] |
| 103 | 6.09 | COc1ccc(S(=O)(=O)c2ccc3c(=O)n(Cc4ccncc4O)ncc3c2)cc1 [Example 105, 2-((3-hydroxypyridin-4-yl)methyl)-6-(4-methoxyphenylsulfonyl)phthalazin-1(2H)-one] |
| 103 | 6.23 | COc1ccc(S(=O)(=O)c2ccc3c(=O)n(Cc4cnccc4O)ncc3c2)cc1 [Example 107, 2-((4-hydroxypyridin-3-yl)methyl)-6-(4-methoxyphenylsulfonyl)phthalazin-1(2H)-one] |
| 96.5 | 6.85 | COc1ccc(S(=O)(=O)c2ccc3c(=O)n(Cc4ccc(OC)nc4O)ncc3c2)cc1 [Example 109, 2-((2-hydroxy-6-methoxypyridin-3-yl)methyl)-6-(4-methoxyphenylsulfonyl)phthalazin-1(2H)-one] |
| 124 | 6.61 | O=c1c2ccc(S(=O)(=O)c3ccccc3)cc2cnn1Cc1cc(F)[nH]n1 [Example 111, 2-((5-fluoro-1H-pyrazol-3-yl)methyl)-6-(phenylsulfonyl)phthalazin-1(2H)-one] |
| 66.4 | 7.67 | COc1ccc(S(=O)(=O)c2ccc3c(=O)n(Cc4cc(C(F)(F)F)no4)ncc3c2)cc1 [Example 112, 6-(4-methoxyphenylsulfonyl)-2-((3-(trifluoromethyl)isoxazol-5-yl)methyl)phthalazin-1(2H)-one] |
| 97.1 | 6.68 | Nc1cccc(Cn2ncc3cc(S(=O)(=O)c4cccc5cccnc45)ccc3c2=O)c1 [Example 114, 2-(3-aminobenzyl)-6-(quinolin-8-ylsulfonyl)phthalazin-1(2H)-one] |
| 96.1 | 7.23 | COc1cccc(S(=O)(=O)c2ccc3c(=O)n(Cc4ccc(OC)nc4)ncc3c2)c1 [Example 116, 6-(3-methoxyphenylsulfonyl)-2-((6-methoxypyridin-3-yl)methyl)phthalazin-1(2H)-one] |
| 93.2 | 7.22 | COc1ccc(Cn2ncc3cc(S(=O)(=O)c4csc(C(N)=O)c4)ccc3c2=O)cn1 [Example 118, 4-(2-((6-methoxypyridin-3-yl)methyl)-1-oxo-1,2-dihydrophthalazin-6-ylsulfonyl)thiophene-2-carboxamide] |
| 103 | 6.63 | N=S(=O)(c1ccccc1)c1ccc2c(=O)n(Cc3cccc(N)c3)ncc2c1 (stereo not drawn) [Example 120, 2-(3-aminobenzyl)-6-(phenylsulfonimidoyl)phthalazin-1(2H)-one] |
| 116 | 6.21 | Nc1cccc(Cn2ncc3cc(S(=O)(=O)c4cccnc4)ccc3c2=O)c1 [Example 121, 2-(3-aminobenzyl)-6-(pyridin-3-ylsulfonyl)phthalazin-1(2H)-one] |
| 88.8 | 6.34 | COc1ccc(Cn2ncc3cc(OC4(c5ccccc5)COC4)ncc3c2=O)cn1 [Example 125, 3-((6-methoxypyridin-3-yl)methyl)-7-((3-phenyloxetan-3-yl)oxy)pyrido[3,4-d]pyridazin-4(3H)-one] |
| 95.3 | 7.72 | COc1ccc(Cn2ncc3cc(S(=O)(=O)c4ccc5c(c4)CCO5)ccc3c2=O)cn1 [Example 126, 6-((2,3-dihydrobenzofuran-5-yl)sulfonyl)-2-((6-methoxypyridin-3-yl)methyl)phthalazin-1(2H)-one] |
| 104 | 7.56 | Nc1cccc(Cn2ncc3cc(S(=O)(=O)c4ccc5c(c4)CCO5)ccc3c2=O)c1 [Example 143, 2-(3-aminobenzyl)-6-((2,3-dihydrobenzofuran-5-yl)sulfonyl)phthalazin-1(2H)-one] |
| 114 | 6.84 | Nc1cccc(Cn2ncc3cc(S(=O)(=O)c4ccccn4)ccc3c2=O)c1 [Example 144, 2-(3-aminobenzyl)-6-(pyridin-2-ylsulfonyl)phthalazin-1(2H)-one] |
| 106 | 6.81 | Cn1ccc(S(=O)(=O)c2ccc3c(=O)n(Cc4cccc(N)c4)ncc3c2)n1 [Example 145, 2-(3-aminobenzyl)-6-((1-methyl-1H-pyrazol-3-yl)sulfonyl)phthalazin-1(2H)-one] |

| Structure (SMILES) | Emax [%] | pEC50 |
| --- | --- | --- |
| COc1ccc(Cn2ncc3cc(S(=O)(=O)c4ccc(C)cn4)ccc3c2=O)cn1 [Example 115, 2-((6-methoxypyridin-3-yl)methyl)-6-(5-methylpyridin-2-ylsulfonyl)phthalazin-1(2H)-one] | 69.8 | 6.56 |
| COc1ccc(Cn2ncc3cc(S(=O)(=O)c4ccsc4C(N)=O)ccc3c2=O)cn1 [Example 117, 3-(2-((6-methoxypyridin-3-yl)methyl)-1-oxo-1,2-dihydrophthalazin-6-ylsulfonyl)thiophene-2-carboxamide] | 77 | 6.75 |
| Nc1cccc(Cn2ncc3cc([S+]([O-])c4ccccc4)ccc3c2=O)c1 (stereo not drawn) [Example 119, 2-(3-aminobenzyl)-6-(phenylsulfinyl)phthalazin-1(2H)-one] | 98.8 | 6.46 |
| COc1ccc(Cn2ncc3cc(S(=O)(=O)Nc4ccccc4)ccc3c2=O)cn1 [Example 122, 2-((6-methoxypyridin-3-yl)methyl)-1-oxo-N-phenyl-1,2-dihydrophthalazine-6-sulfonamide] | 60 | 6.23 |
| COc1ccc(Cn2ncc3cc(S(=O)(=O)c4cccc5[nH]ncc45)ccc3c2=O)cn1 [Example 123, 6-((1H-indazol-4-yl)sulfonyl)-2-((6-methoxypyridin-3-yl)methyl)phthalazin-1(2H)-one] | 74.4 | 6.91 |
| COc1ccc(Cn2ncc3cc(S(=O)(=O)c4ccc(OC(F)F)nc4)ccc3c2=O)cn1 [Example 124, 6-((6-(difluoromethoxy)pyridin-3-yl)sulfonyl)-2-((6-methoxypyridin-3-yl)methyl)phthalazin-1(2H)-one] | 107 | 7.50 |
| COc1ccc(Cn2ncc3cc(S(=O)(=O)c4cnc5c(c4)OCCO5)ccc3c2=O)cn1 [Example 130, 6-((2,3-dihydro-[1,4]dioxino[2,3-b]pyridin-7-yl)sulfonyl)-2-((6-methoxypyridin-3-yl)methyl)phthalazin-1(2H)-one] | 57.1 | 6.65 |
| COc1ccc(Cn2ncc3cc(S(=O)(=O)c4cc[nH]n4)ccc3c2=O)cn1 [Example 140, 6-((1H-pyrazol-3-yl)sulfonyl)-2-((6-methoxypyridin-3-yl)methyl)phthalazin-1(2H)-one] | 107 | 6.72 |
